The values below come from ChEMBL document CHEMBL1141796, “Hirsutide, a cyclic tetrapeptide from a spider-derived entomopathogenic fungus, Hirsutella sp” (J Nat Prod, 2005).

One assay deals with Bacillus subtilis. Nature of the assay: Antibacterial activity against Bacillus subtilis by agar diffusion assay. In kind it is functional, organism-based.
The subject of the next assay is P388. Description: Cytotoxicity against mouse P388 cells. It counts as functional, cell-based.
The next assay relates to Escherichia coli. Description: Antibacterial activity against Escherichia coli by agar diffusion assay. In kind it is functional, organism-based. (In general: In agar diffusion tests the substance spreads into inoculated agar from a disc or well.)
For a further assay, the system named is Candida albicans. Nature of the assay: Antifungal activity against Candida albicans by agar diffusion assay. It counts as functional, organism-based.
The subject of another assay is Amorphotheca resinae. Nature of the assay: Antifungal activity against Cladosporium resinae by agar diffusion assay. In kind it is functional, organism-based.
For assay [1], the system named is Trichophyton mentagrophytes. Nature of the assay: Antifungal activity against Trichophyton mentagrophytes by agar diffusion assay. In kind it is functional, organism-based.

Calls of active or inactive are those of the source. No cut-off for these calls is given here.

Consider `CC(=O)O[C@@H]1/C=C/[C@@](C)(O)C(=O)[C@@H](C)C/C=C/[C@H]2[C@@H]3O[C@]3(C)[C@@H](C)[C@H]3[C@H](Cc4ccccc4)NC(=O)[C@@]312` [CYTOCHALASIN Q], for which the outcome (in the assay on Bacillus subtilis; in the assay with Escherichia coli; in the assay on Candida albicans; in the assay with Amorphotheca resinae; in assay [1]) was inactive. The midpoint of inhibition in the assay with P388, the IC50, lay at 2.4 µM.
